“And” between values parts separate entries of the source, which are not always exact repeats. Equal values may be shown once.
Row | Structure (SMILES) | melting point
1 | COc1ccc(/C=C/C(=O)O)c(Cl)c1OC [2-chloro-3,4-dimethoxycinnamic acid] | 195 °C
2 | N#CCc1cccc(C(F)(F)F)c1Cl [2-chloro-3-(trifluoromethyl)phenylacetonitrile] | 58 °C
3 | O=[N+]([O-])c1cc[n+]([O-])c(Cl)c1F [2-chloro-3-fluoro-4-nitropyridine n-oxide] | 177 °C
4 | O=C(O)c1cccc([N+](=O)[O-])c1Cl [2-chloro-3-nitrobenzoic acid] | 184 °C
5 | O=[N+]([O-])c1ccc(-c2ccc([N+](=O)[O-])cc2Cl)cc1 [2-chloro-4,4'-dinitrobiphenyl] | 145 °C
6 | Cc1ccc(B(O)O)c(Cl)c1 [2-chloro-4-methylbenzeneboronic acid] | 200 °C
7 | N#Cc1cc(C(F)(F)F)ccc1Cl [2-chloro-5-(trifluoromethyl)benzonitrile] | 39 °C
8 | O=C(O)c1cc(I)ccc1Cl [2-chloro-5-iodobenzoic acid] | 159 °C
9 | O=Cc1cc([N+](=O)[O-])ccc1Cl [2-chloro-5-nitrobenzaldehyde] | 71 °C
10 | O=C(O)c1cc([N+](=O)[O-])ccc1Cl [2-chloro-5-nitrobenzoic acid] | 166 °C
11 | Cc1ccc(F)c(C=O)c1Cl [2-chloro-6-fluoro-3-methylbenzaldehyde] | 27 °C
12 | ON=Cc1c(F)cccc1Cl [2-chloro-6-fluorobenzaldoxime] | 126 °C
13 | Cc1cccc(Cl)c1N [2-chloro-6-methylaniline] | 2 °C
14 | Nc1c(Cl)cc(C(F)(F)F)cc1[N+](=O)[O-] [2-chloro-6-nitro-4-(trifluoromethyl)aniline] | 65 °C
15 | O=Cc1ccccc1Cl [2-chlorobenzaldehyde] | 10 °C
16 | N#Cc1ccccc1Cl [2-chlorobenzonitrile] | 45 °C
17 | Clc1nc2ccccc2s1 [2-chlorobenzothiazole] | 32 °C
18 | Clc1ccccc1C(Cl)(Cl)Cl [2-chlorobenzotrichloride] | 30 °C
19 | FC(F)(F)c1ccccc1Cl [2-chlorobenzotrifluoride] | -6 °C
20 | Oc1ccc(O)c(Cl)c1 [2-chlorohydroquinone] | 102 °C
21 | O=C(O)C(O)c1ccccc1Cl (stereo not given) [2-chloromandelic acid] | 83 °C
22 | O=C(O)COc1ccccc1Cl [2-chlorophenoxyacetic acid] | 150 °C
23 | N#Cc1ccccc1O [2-cyanophenol] | 94 °C
24 | O=C1C=CCCC1 [2-cyclohexen-1-one] | -53 °C
25 | CCCCCCCCC(C)=O [2-decanone] | 3 °C
26 | O=C(O)c1c(P(c2ccccc2)c2ccccc2)ccc2ccccc12 [2-diphenylphosphino-1-naphthoic acid] | 191 °C
27 | CCCCCCCCCCC(C)=O [2-dodecanone] | 21 °C

Row | Structure (SMILES) | melting point
28 | CCOc1cc(C)ccc1O [2-ethoxy-4-methylphenol] | 29 °C
29 | CCOc1ccccc1B(O)O [2-ethoxybenzeneboronic acid] | 100 °C
30 | CCOCCOC(C)=O [2-ethoxyethyl_acetate] | -61 °C
31 | CCC1C(=O)CCC1=O [2-ethyl-1,3-cyclopentanedione] | 169 °C
32 | C=C(CC)CC [2-ethyl-1-butene] | -132 °C
33 | CCCCC(CC)CO (stereo not given) [2-ethyl-1-hexanol] | -76 °C
34 | CCC(C)(CO)CO [2-ethyl-2-methyl-1,3-propanediol] | 44 °C
35 | CCC(CC)C(=O)O [2-ethylbutyric acid] | -15 °C
36 | CCCCC(CC)C(=O)O (stereo not given) [2-ethylhexanoic acid] | -59 °C
37 | CCCCC(CC)CN (stereo not given) [2-ethylhexylamine] | -76 °C
38 | CC(=O)Nc1ccc(Cl)cc1F [2-fluoro-4-chloroacetanilide] | 157 °C
39 | N#Cc1c(O)cccc1F [2-fluoro-6-hydroxybenzonitrile] | 156 °C
40 | O=[N+]([O-])c1cccc(F)c1O [2-fluoro-6-nitrophenol] | 93 °C
41 | CC(C(=O)O)c1ccc(-c2ccccc2)c(F)c1 (stereo not drawn) [2-fluoro-alpha-methyl-4-biphenylacetic acid] | 113 °C
42 | OB(O)c1ccc(-c2ccccc2)c(F)c1 [2-fluorobiphenyl-4-boronic acid] | 246 °C
43 | OB(O)c1cccnc1F [2-fluoropyridine-3-boronic acid] | 172 °C
44 | O=C(Cl)c1ccco1 [2-furoyl chloride] | -1 °C
45 | N#CCC(=O)c1ccco1 [2-furoylacetonitrile] | 79 °C
46 | CCCCCC(C)=O [2-heptanone] | -35 °C
47 | CCCCC(C)=O [2-hexanone] | -56 °C
48 | COc1cccc(C=O)c1O [2-hydroxy-3-methoxybenzaldehyde] | 41 °C
49 | COc1cccc(C(=O)O)c1O [2-hydroxy-3-methoxybenzoic acid] | 152 °C
50 | S=C=Nc1ccccc1I [2-iodophenyl isothiocyanate] | 38 °C
51 | CC(C)I [2-iodopropane] | -90 °C
52 | CC(C)c1ccccc1B(O)O [2-isopropylbenzeneboronic acid] | 86 °C
53 | Sc1nc2ccccc2o1 [2-mercaptobenzoxazole] | 192 °C
54 | COc1ccc(C)cc1O [2-methoxy-5-methylphenol] | 37 °C

Row | Structure (SMILES) | melting point
55 | CNC1=CC2=NC(OC)=CC2=CC1 [2-methoxy-N-methyl-1H-indol-6-amine] | 165 °C
56 | COc1ccccc1C(=O)O [2-methoxybenzoic acid] | 101 °C
57 | COc1ccccc1O [2-methoxyphenol] | 30 °C
58 | C=C(C)CC [2-methyl-1-butene] | -137 °C
59 | CC1=C(C#N)c2ccccc2C1 [2-methyl-1H-indene-3-carbonitrile] | 70 °C
60 | CC1=NCCN1 [2-methyl-2-imidazoline] | 100 °C
61 | CCCC(C)(CO)CO [2-methyl-2-propyl-1,3-propanediol] | 55 °C
62 | Cc1ccccc1CO [2-methylbenzyl alcohol] | 35 °C
63 | Cc1ccccc1CCl [2-methylbenzyl chloride] | 2 °C
64 | Cc1ccccc1CO [2-methylbenzyl_alcohol] | 39 °C
65 | Cc1ccccc1CP(=O)(O)O [2-methylbenzylphosphonic acid] | 186 °C
66 | Cc1ccccc1Cc1ccccc1 [2-methyldiphenylmethane] | 7 °C
67 | Cc1ccccc1NC=O [2-methylformanilide] | 59 °C
68 | Cc1ccco1 [2-methylfuran] | -89 °C
69 | Cc1cc(O)ccc1O [2-methylhydroquinone] | 129 °C
70 | CC(C)C(=O)O [2-methylpropanoic_acid] | -46 °C
71 | Cc1c(O)cccc1O [2-methylresorcinol] | 120 °C
72 | CCCc1c(O)cccc1O [2-n-propylresorcinol] | 103 °C
73 | c1ccc(-c2nc3ccccc3nc2-c2ccc3ccccc3c2)cc1 [2-naphthalen-2-yl-3-phenylquinoxaline] | 122 °C
74 | OB(O)c1ccc2ccccc2c1 [2-naphthaleneboronic acid] | 267 °C
75 | Nc1cc(C(F)(F)F)ccc1[N+](=O)[O-] [2-nitro-5-(trifluoromethyl)aniline] | 100 °C
76 | Nc1ccccc1[N+](=O)[O-] [2-nitroaniline] | 72 °C
77 | O=C(O)c1ccccc1[N+](=O)[O-] [2-nitrobenzoic acid] | 148 °C
78 | O=[N+]([O-])c1ccccc1O [2-nitrophenol] | 44.8 °C and 44.5 °C and 44 °C
79 | O=C(O)CC1CCCC1=O (stereo not given) [2-oxocyclopentylacetic acid] | 49 °C
80 | O=C(O)CCC(=O)C(=O)O [2-oxopentanedioic acid] | 116 °C
81 | CCCC(C)=O [2-pentanone] | -78 °C

Row | Structure (SMILES) | melting point
82 | O=C1CCCCC1c1ccccc1 (stereo not given) [2-phenylcyclohexanone] | 58 °C
83 | CC(C(=O)O)c1ccccc1 (stereo not given) [2-phenylpropionic acid] | -5 °C
84 | Cc1ccccn1 [2-picoline] | -70 °C
85 | CC(C)O [2-propanol] | -88 °C
86 | O=C1C(c2ccccn2)=Nc2ccccc21 [2-pyridin-2-yl-3H-indol-3-one] | 186 °C
87 | O=C1CCCN1 [2-pyrrolidinone] | 24 °C
88 | CCC(C)c1ccccc1O (stereo not given) [2-sec-butylphenol] | 10 °C
89 | Cc1ccc(O)c(C(C)(C)C)c1 [2-tert-butyl-4-methylphenol] | 52 °C
90 | CCCCCCCCCCCC(C)=O [2-tridecanone] | 30 °C
91 | CCCCCCCCCC(C)=O [2-undecanone] | 12 °C
92 | O=C1C=C(NCCNc2ccccc2)C(=O)c2ccccc21 [2-{[2-(phenylamino)ethyl]amino}naphthalene-1,4-dione] | 141 °C
93 | CC(=O)c1cccc(Br)c1 [3'-bromoacetophenone] | 8 °C
94 | Nc1cccc(C(=O)c2cccc(N)c2)c1 [3,3'-diaminobenzophenone] | 150 °C
95 | Nc1cccc(Cc2cccc(N)c2)c1 [3,3'-diaminodiphenylmethane] | 82 °C
96 | C#CC(C)(C)C [3,3-Dimethylbut-1-yne] | -78 °C
97 | C#CC(C)(C)C [3,3-dimethyl-1-butyne] [listing 1 of 2 here] | -78 °C
98 | C#CC(C)(C)C [3,3-dimethyl-1-butyne] [listing 2 of 2 here] | -78 °C
99 | O=c1c(O)c(-c2ccc(O)cc2)oc2ccccc12 [3,4'-dihydroxyflavone] | 286 °C
100 | COc1cc(B(O)O)cc(OC)c1OC [3,4,5-trimethoxybenzeneboronic acid] | 245 °C
101 | COc1cc(C(=O)O)cc(OC)c1OC [3,4,5-trimethoxybenzoic acid] | 170 °C
102 | COC1CC(C(=O)Cl)CC(OC)C1OC (stereo not given) [3,4,5-trimethoxycyclohexanecarbonyl chloride] | 82 °C
103 | COc1cc(O)cc(OC)c1OC [3,4,5-trimethoxyphenol] | 146 °C
104 | O=Cc1ccc(O)c(O)c1 [3,4-Dihydroxybenzaldehyde] | 154 °C
105 | Cc1ccc(N)c(N)c1 [3,4-diaminotoluene] | 88 °C

— the Bradley open melting point set (2014)
